In patent publication US8105845B2, “System and method for carrying out multiple binding reactions in an array format” (Bio-Rad Haifa Ltd., priority 2003, dated 2012):

Legend:
[1] = biological target: Cytochrome-P450 (CYP) 2C9 (Homo sapiens, UniProt P11712); test: SPR array binding of compound targets to immobilized CYP450 enzyme probes
[2] = biological target: Cytochrome-P450 (CYP) 2D6 (Homo sapiens, UniProt P10635); test: biochemical
[3] = biological target: Cytochrome-P450 (CYP) 2C19 (Homo sapiens, UniProt P33261); test: biochemical
Sequence of Cytochrome-P450 (CYP) 2C19 (P33261 whole entry): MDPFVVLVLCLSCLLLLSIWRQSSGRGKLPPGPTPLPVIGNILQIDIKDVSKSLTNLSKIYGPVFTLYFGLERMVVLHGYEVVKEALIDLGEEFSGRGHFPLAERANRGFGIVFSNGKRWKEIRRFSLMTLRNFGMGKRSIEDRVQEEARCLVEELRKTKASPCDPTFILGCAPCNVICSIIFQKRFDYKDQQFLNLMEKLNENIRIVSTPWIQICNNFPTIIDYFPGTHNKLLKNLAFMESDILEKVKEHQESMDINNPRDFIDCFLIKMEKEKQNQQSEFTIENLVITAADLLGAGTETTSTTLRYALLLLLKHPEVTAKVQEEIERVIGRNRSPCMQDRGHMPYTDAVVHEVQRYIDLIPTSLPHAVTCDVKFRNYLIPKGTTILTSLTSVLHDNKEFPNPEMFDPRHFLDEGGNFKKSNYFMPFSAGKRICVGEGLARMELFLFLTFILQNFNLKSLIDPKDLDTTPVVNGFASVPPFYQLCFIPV

[4] = biological target: T1, Cytochrome-P450 (CYP) 1A2 (Homo sapiens, UniProt P05177); test: biochemical
T1 sequence (P05177 1-516): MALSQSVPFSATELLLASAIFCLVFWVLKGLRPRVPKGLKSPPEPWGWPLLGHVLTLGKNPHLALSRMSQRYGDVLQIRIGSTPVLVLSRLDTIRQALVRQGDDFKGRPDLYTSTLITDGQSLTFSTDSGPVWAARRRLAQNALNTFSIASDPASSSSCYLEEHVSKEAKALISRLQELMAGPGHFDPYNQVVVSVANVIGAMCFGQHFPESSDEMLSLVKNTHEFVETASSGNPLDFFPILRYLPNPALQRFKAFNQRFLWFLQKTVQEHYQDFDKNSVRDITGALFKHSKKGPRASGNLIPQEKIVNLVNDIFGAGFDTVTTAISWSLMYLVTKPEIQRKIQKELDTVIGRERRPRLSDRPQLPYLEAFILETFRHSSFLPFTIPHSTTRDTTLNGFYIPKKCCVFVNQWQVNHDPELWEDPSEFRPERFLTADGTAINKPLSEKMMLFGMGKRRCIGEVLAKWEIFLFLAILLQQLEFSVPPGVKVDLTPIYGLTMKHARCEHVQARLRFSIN

Sequence of Cytochrome-P450 (CYP) 2D6 (P10635 whole entry): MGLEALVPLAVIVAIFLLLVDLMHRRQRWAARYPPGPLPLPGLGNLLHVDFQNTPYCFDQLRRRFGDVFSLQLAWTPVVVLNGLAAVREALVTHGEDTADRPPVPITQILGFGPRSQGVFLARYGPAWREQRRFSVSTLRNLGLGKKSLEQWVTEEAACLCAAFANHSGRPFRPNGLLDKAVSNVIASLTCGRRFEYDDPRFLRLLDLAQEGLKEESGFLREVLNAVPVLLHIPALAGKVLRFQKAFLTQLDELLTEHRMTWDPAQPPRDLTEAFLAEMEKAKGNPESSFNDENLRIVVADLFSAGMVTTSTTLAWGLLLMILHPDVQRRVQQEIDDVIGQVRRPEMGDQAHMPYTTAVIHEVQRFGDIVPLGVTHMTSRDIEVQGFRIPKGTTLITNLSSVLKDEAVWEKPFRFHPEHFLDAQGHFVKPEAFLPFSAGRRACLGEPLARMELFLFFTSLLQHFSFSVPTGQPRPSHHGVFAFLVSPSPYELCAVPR
Sequence of Cytochrome-P450 (CYP) 2C9 (P11712 whole entry): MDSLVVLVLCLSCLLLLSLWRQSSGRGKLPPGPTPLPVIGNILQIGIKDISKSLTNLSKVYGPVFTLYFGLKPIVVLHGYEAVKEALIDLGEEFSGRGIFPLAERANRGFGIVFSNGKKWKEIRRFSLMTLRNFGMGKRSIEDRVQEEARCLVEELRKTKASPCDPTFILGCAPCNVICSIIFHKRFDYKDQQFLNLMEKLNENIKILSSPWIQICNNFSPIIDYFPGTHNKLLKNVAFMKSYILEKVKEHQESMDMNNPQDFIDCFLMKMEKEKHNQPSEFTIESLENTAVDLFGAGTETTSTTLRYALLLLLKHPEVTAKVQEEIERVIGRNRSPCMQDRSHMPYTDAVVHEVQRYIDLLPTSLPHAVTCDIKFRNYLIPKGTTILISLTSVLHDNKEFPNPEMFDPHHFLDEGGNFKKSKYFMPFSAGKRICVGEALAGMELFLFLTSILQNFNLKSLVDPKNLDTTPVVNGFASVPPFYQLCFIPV

SMILES	Kd [1]	Kd [2]	Kd [3]	Kd [4]
COc1ccc2c(c1)[C@]13CCCC[C@@H]1[C@H](C2)N(C)CC3 [Dexomethorphan]	28.3 mM	60.4 mM	7.9 mM	
O=C(O)Cc1ccccc1Nc1c(Cl)cccc1Cl [Diclofenac]		0.681 mM	0.717 mM	14.2 mM
CC(C)NCC(O)COc1cccc2ccccc12 (stereo not drawn) [Propranolol]	5.13 mM		6.59 mM	0.873 mM
